Laboratory results from ChEMBL document CHEMBL3580576, “Eremophilane Sesquiterpenes and Diphenyl Thioethers from the Soil Fungus Penicillium copticola PSU-RSPG138” (J Nat Prod, 2015).
pIC50: −log10 of the molar value. ≈ marks a conversion by molar mass, not a printed value. Calls of active or inactive are those of the source. The rule behind the calls is not given here.

How the values were obtained:
[1] = tested on: Mycobacterium tuberculosis; experiment: Antimycobacterial activity against GFP expressing Mycobacterium tuberculosis H37Ra assessed as microbial growth inhibition incubated at 37 degC for 7 days by fluorescence based assay; assay type: functional
[2] = tested on: Vero; experiment: Cytotoxicity against African green monkey Vero cells assessed as reduction in cell growth incubated at 37 degC for 4 days by fluorescence based assay; details: Chlorocebus sabaeus, 96 h
[3] = tested on: Plasmodium falciparum; experiment: Antimalarial activity against multidrug-resistant Plasmodium falciparum K1 assessed as reduction in parasite growth incubated for 24 hrs by [3H]hypoxanthine incorporation based microculture radioisotope technique based method; assay type: functional, organism-based; details: for pIC50: Plasmodium falciparum, K1, read-out: IC50
[4] = tested on: KB; experiment: Antiproliferative activity against human KB cells assessed as reduction in cell growth incubated at 37 degC for 3 days by resazurin microplate assay; assay type: functional, cell-based; details: for IC50: kb; for pIC50: Homo sapiens, KB, 72 h, read-out: IC50
[5] = tested on: MCF7; experiment: Antiproliferative activity against human MCF7 cells assessed as reduction in cell growth incubated at 37 degC for 3 days by resazurin microplate assay; assay type: functional, cell-based; details: for IC50: mcf7; for pIC50: Homo sapiens, MCF7, 72 h, read-out: IC50

Compound | MIC ([1]; 168 h) | MIC [1] | pIC50 [2] | IC50 [5] | pIC50 [3] | pIC50 [4] | also measured
NNC(=O)c1ccncc1 [ISONIAZID] | 0.094 µg/mL (≈ 0.685 µM) | – | – | – | – | – | –
C=C(CO)[C@@H]1C[C@@]2(C)C(=CC1=O)CC[C@@H](O)[C@@H]2C | – | inactive | 4.25 | Not Active | – | – | IC50 [3]: Not Active; IC50 [4]: Not Active
C=C(C)C1=C[C@@]2(C)C(=CC1=O)CC[C@@H](O)[C@@H]2C | – | inactive | 4.46 | Not Active | 4.80 | – | IC50 [4]: Not Active
Cc1c2ccncc2c(C)c2c1[nH]c1ccccc12 [ELLIPTECINE] | – | – | 5.42 | – | – | 5.70 | –
C=C(CO)[C@@]12O[C@@H]1[C@@]1(C)C(=CC2=O)CC[C@@H](O)[C@@H]1C | – | inactive | 5.22 | Not Active | 5.27 | 4.50 | –
CC[C@@H](CO)NCCN[C@@H](CC)CO [ETHAMBUTOL] | 0.983 µg/mL (≈ 4.81 µM) | – | – | – | – | – | –
C=C(C)[C@@]12O[C@@H]1[C@@]1(C)C(=CC2=O)CC[C@@H](OC(=O)Cc2ccc(O)c(Cl)c2)[C@@H]1C | 50 µg/mL (≈ 120 µM) | – | 4.68 | – | 5.46 | 4.24 | pIC50 [5]: 4.40
C=C(C)[C@@]12O[C@@H]1[C@@]1(C)C(=C[C@@H]2O)CC[C@@H](O)[C@@H]1C | – | inactive | 4.62 | Not Active | – | – | IC50 [3]: Not Active; IC50 [4]: Not Active
C=C(C)[C@@]12O[C@@H]1[C@@]1(C)C(=CC2=O)CC[C@@H](OC(C)=O)[C@@H]1C | – | inactive | 5.12 | Not Active | 5.34 | 4.45 | –
CO[C@H]1/C=C/O[C@@]2(C)Oc3c(C)c(O)c4c(O)c(c(/C=N/N5CCN(C)CC5)c(O)c4c3C2=O)NC(=O)/C(C)=C\C=C\[C@H](C)[C@H](O)[C@@H](C)[C@@H](O)[C@@H](C)[C@H](OC(C)=O)[C@@H]1C [RIFAMPIN] | 0.025 µg/mL (≈ 0.0304 µM) | – | – | – | – | – | –
CC/C(=C(\c1ccccc1)c1ccc(OCCN(C)C)cc1)c1ccccc1 [TAMOXIFEN] | – | – | – | – | – | – | pIC50 [5]: 4.73
C=C(C)[C@@H]1C[C@@]2(C)C(=CC1=O)CC[C@@H](O)[C@@H]2C | – | inactive | 4.35 | Not Active | 4.41 | 3.73 | –
COc1cccc2c1C(=O)c1c(O)c3c(c(O)c1C2=O)C[C@@](O)(C(=O)CO)C[C@@H]3O[C@H]1C[C@H](N)[C@H](O)[C@H](C)O1 [DOXORUBICIN] | – | – | – | – | – | 6.04 | pIC50 [5]: 4.94
C[C@H]1[C@@H](O)O[C@@H]2O[C@@]3(C)CC[C@H]4[C@H](C)CC[C@@H]1[C@@]24OO3 [ARTENIMOL] | – | – | – | – | 8.90 | – | –
C=C(C)[C@@]12O[C@@H]1[C@@]1(C)C(=CC2=O)CC[C@@H](O)[C@@H]1C | – | inactive | 5.37 | Not Active | 5.82 | 4.75 | –
CN[C@@H]1[C@H](O[C@H]2[C@H](O[C@H]3[C@H](O)[C@@H](O)[C@H](N=C(N)N)[C@@H](O)[C@@H]3N=C(N)N)O[C@@H](C)[C@]2(O)C=O)O[C@@H](CO)[C@H](O)[C@H]1O [STREPTOMYCIN] | 0.625 µg/mL (≈ 1.07 µM) | – | – | – | – | – | –
CC1COc2c(N3CCN(C)CC3)c(F)cc3c(=O)c(C(=O)O)cn1c23 (stereo unspecified) [OFLOXACIN] | 0.391 µg/mL (≈ 1.08 µM) | – | – | – | – | – | –
